From patent US5369111A, “Modulator agent and use thereof” (University of Vermont, priority 1992, dated 1994)

Key:
S180/A10 cells = assay: Inhibition of population growth (cytotoxicity), MDR strain S180/A10; format: cell-based, mouse; settings: 4320 min
Excerpt: (§1) The analogs were examined in a panel of tumor cell lines of both intrinsic and acquired drug resistance, as described in Table 1. The rat colon adenocarcinoma cell lines RCC-2 and RCC-5 (ref. 13) were maintained in Ham's F12 medium supplemented with 5% heat-inactivated, fetal bovine serum (Sterile Systems. Hyclone, Logan, Utah). The two rat colon cancer cell lines differ in their degree of cellular differentiation; whereas the RCC-2 cell line is undifferentiated, the RCC-5 cell line is highly mucinous. The human epidermoid carcinoma cell line KB-3-1 and its MDR variant KB-Vl, selected by VBL treatment (ref. 14; courtesy of M. Gottesman. National Cancer Institute), was maintained in DMEM medium supplemented with 10%, heat-inactivated, fetal bovine serum. The murine sarcoma cell line […] and its MDR strains A3 and A10 selected by ADM treatment (ref. 15; courtesy of T. Tritton, Dept. Pharmacology, Univ. Vermont). were maintained in DMEM medium supplemented with 10% heat-inactivated, horse serum (Hazelton Biolog. Lenexa, Kans.). Stock cultures were subcultured twice weekly upon reaching the late exponential phase of population growth: population doubling times were 18-24 h. Antibiotics were not used in stock or experimental cultures. The MDR cell strains were grown in drug-free media for 48 h prior to experimental use.
(§2) Mid-exponential cultures were used for all assays. The RCC-2 and RCC-5 cell lines were seeded into 24-well plates at 2×10^4 cells/well and allowed to attach to the substratum for 16-18 h prior to treatment. The S180 cell lines were seeded into culture tubes at 1×10^5 cells/ml and treated immediately. Cytotoxicity was determined by quantitation of population growth after 72 h incubation by electronic particle counter (Coulter Electronics, Hialeah, Fla.). The human tumor cell lines were used in a clonogenic assay for cytotoxicity. Cells were seeded at 300 cells/dish, incubated overnight and then treated. Colonies were scored 7-11 days later. In all assays of analog modulation of drug sensitivity, the analog was added minutes prior to the addition of cytotoxic drug.

P388 R cells = assay: Viability (MTT test) of P388 R cells; format: cell-based, mouse; settings: for resistance of P388 R cells to cytotoxic activity of the drug: FIGS. 12 to 14
Excerpt: The sensitization of C-20'-deoxy C-20'-deethyl vincovaline (D-DEV) has been tested on sensitive and resistants P388 cell lines originating from mouse lympnoma.
The resistance to anticancerous drug has been induced on DBA2 mouses bearing P388 cells ascites and maintained by treatment with adryamycin.
This study has been carried out at least in triplicate.

S180/A3 cells = assay: Inhibition of population growth (cytotoxicity), MDR strain S180/A3; format: cell-based, mouse
Excerpt: as §1, §2

KB-V1 cells = assay: Clonogenic assay for cytotoxicity, MDR variant KB-V1; format: cell-based, human; settings: for Relative resistance: IC50 in KB-V1 divided by IC50 of parental, Table I
Excerpt: as §1, §2
FIG. 10 represents the potency of the analog C-20'-deoxy deethyl vincovaline as a modulator of the drug sensitivity of various cell lines: the parental S180 cell line: the two rat colon cancer cell lines, RCC-2 and RCC-5; and the human epidermoid carcinoma cell line KB-3-1 and its MDR cell strain KB-V1, which expresses very high levels of drug resistance (200-500 fold). The enhancement of sensitivity was calculated as the sensitivity index =IC50 of the drug alone divided by the IC50 of the drug+analog. The drugs examined were ADM (o), VBL (Δ), and VCR (.quadrature.). The cytotoxicity of drug and analog treatments in the KB cell lines were measured by cloning efficiencies. The arrows denote the non-toxic concentration limit of the analog in each cell line.

S180 cells, parental = assay: Inhibition of population growth (cytotoxicity), S180 sarcoma, parental; format: cell-based, mouse; settings: Mus musculus; for IC70: S-180, 72 h, parental S180; for IC50: S-180
Excerpt: as §1, §2

RCC-5 cells = assay: Inhibition of population growth (cytotoxicity), rat colon adenocarcinoma RCC-5; format: cell-based; settings: Rattus norvegicus; RCC-5, 72 h
Excerpt: as §1, §2

KB-3-1 cells = assay: Clonogenic assay for cytotoxicity, KB-3-1 parental; format: cell-based; settings: Homo sapiens
Excerpt: as §1, §2

RCC-2 cells = assay: Inhibition of population growth (cytotoxicity), rat colon adenocarcinoma RCC-2; format: cell-based; settings: Rattus norvegicus; RCC-2, 72 h
Excerpt: as §1, §2

[1] = A10, IC50 resistant / IC50 parental, Table II
[2] = IC50 in S180/A10 divided by IC50 of parental, Table I
[3] = A3, IC50 resistant / IC50 parental, Table II, 4320 min
[4] = IC50 in S180/A3 divided by IC50 of parental, Table I

| Structure (SMILES) | Relative resistance (S180/A10 cells; [1]) | Relative resistance (S180/A10 cells; [2]) | adriamycin cytotoxicity in P388 R cells (P388 R cells; 0.17 to 4.31 μM, 37° C., 24 and 48 hours) | resistance of P388 R cells to cytotoxic activity of the drug (P388 R cells) | Relative resistance (S180/A3 cells; [3]) | Relative resistance (S180/A3 cells; [4]) | resistance of KB-V1 to the drug (KB-V1 cells) | Relative resistance (KB-V1 cells) | IC70 (S180 cells, parental) | IC50 (S180 cells, parental; S180, parental, Table II) | IC50 (S180 cells, parental; S180 parental, 72 h, Table I) | IC50 (RCC-5 cells) | IC50 (KB-3-1 cells) | IC50 (RCC-2 cells) | vinblastine cytotoxicity towards P388 R cells (P388 R cells; 0.00055 to 0.11 μM, 24 hours) | vincristine cytotoxicity towards P388 R cells (P388 R cells; 0.1 nM to 0.054 μM, 24 hours) |
| --- | --- | --- | --- | --- | --- | --- | --- | --- | --- | --- | --- | --- | --- | --- | --- | --- |
| COc1cccc2c1C(=O)c1c(O)c3c(c(O)c1C2=O)C[C@@](O)(C(=O)CO)C[C@@H]3O[C@H]1C[C@H](N)[C@H](O)[C@H](C)O1 [ADM, adriamycin] | 90 | 90 | lack of adriamycin cytotoxicity | resistance of P388 R cells to cytotoxic activity | 15 | 15 | ≥ 200 fold | 500 | 200 nM | 100 nM | 100 nM | 50 nM | 15 nM | 10 nM |  |  |
| CC[C@]1(O)C[C@@H]2CN(CCc3c([nH]c4ccccc34)[C@@](C(=O)OC)(c3cc4c(cc3OC)N(C)[C@H]3[C@@](O)(C(=O)OC)[C@H](OC(C)=O)[C@]5(CC)C=CCN6CC[C@]43[C@@H]65)C2)C1 [VBL, vinblastine] | 15 | 15 |  | resistance of P388 R cells to cytotoxic activity | 3 | 3 | ≥ 200 fold | 200 | 15 nM | 8 nM | 8 nM | 8 nM | 1 nM | 3 nM | lack of vinblastine cytotoxicity |  |
| CC[C@]1(O)C[C@H]2CN(CCc3c([nH]c4ccccc34)[C@@](C(=O)OC)(c3cc4c(cc3OC)N(C=O)[C@H]3[C@@](O)(C(=O)OC)[C@H](OC(C)=O)[C@]5(CC)C=CCN6CC[C@]43[C@@H]65)C2)C1 [VCR, vincristine] | 20 | 17 |  | resistance of P388 R cells to cytotoxic activity | 10 | 7 | ≥ 200 fold | 400 | 45 nM | 30 nM | 30 nM | 15 nM | 2 nM | 5 nM |  | lack of vincristine cytotoxicity |
